Each molecule was assayed against T1, human GluN1/GluN2B NMDA receptors (Homo sapiens, UniProt Q13224) (assay: Cell-based calcium flux (FLIPR) assay on cloned human NR1/NR2B ion channels expressed in mammalian cells (standard and HTS buffer variants)). Conditions: standard assay buffer (0.5 mM MgCl2 dye loading; 137 mM NaCl, 4 mM KCl assay buffer), human GluN1/GluN2B cells, read-out: NR2B IC50 (μM) standard assay.
T1 construct: expressed in transfected cells
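Note: stable Tet-On inducible cell line, Ca2+ influx triggered by glutamate at about EC40 plus 10 µM glycine, fluorescent dye read-out over 5 min, normalized to control wells.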

T1 sequence (Q13224 27-1484, other chains not shown): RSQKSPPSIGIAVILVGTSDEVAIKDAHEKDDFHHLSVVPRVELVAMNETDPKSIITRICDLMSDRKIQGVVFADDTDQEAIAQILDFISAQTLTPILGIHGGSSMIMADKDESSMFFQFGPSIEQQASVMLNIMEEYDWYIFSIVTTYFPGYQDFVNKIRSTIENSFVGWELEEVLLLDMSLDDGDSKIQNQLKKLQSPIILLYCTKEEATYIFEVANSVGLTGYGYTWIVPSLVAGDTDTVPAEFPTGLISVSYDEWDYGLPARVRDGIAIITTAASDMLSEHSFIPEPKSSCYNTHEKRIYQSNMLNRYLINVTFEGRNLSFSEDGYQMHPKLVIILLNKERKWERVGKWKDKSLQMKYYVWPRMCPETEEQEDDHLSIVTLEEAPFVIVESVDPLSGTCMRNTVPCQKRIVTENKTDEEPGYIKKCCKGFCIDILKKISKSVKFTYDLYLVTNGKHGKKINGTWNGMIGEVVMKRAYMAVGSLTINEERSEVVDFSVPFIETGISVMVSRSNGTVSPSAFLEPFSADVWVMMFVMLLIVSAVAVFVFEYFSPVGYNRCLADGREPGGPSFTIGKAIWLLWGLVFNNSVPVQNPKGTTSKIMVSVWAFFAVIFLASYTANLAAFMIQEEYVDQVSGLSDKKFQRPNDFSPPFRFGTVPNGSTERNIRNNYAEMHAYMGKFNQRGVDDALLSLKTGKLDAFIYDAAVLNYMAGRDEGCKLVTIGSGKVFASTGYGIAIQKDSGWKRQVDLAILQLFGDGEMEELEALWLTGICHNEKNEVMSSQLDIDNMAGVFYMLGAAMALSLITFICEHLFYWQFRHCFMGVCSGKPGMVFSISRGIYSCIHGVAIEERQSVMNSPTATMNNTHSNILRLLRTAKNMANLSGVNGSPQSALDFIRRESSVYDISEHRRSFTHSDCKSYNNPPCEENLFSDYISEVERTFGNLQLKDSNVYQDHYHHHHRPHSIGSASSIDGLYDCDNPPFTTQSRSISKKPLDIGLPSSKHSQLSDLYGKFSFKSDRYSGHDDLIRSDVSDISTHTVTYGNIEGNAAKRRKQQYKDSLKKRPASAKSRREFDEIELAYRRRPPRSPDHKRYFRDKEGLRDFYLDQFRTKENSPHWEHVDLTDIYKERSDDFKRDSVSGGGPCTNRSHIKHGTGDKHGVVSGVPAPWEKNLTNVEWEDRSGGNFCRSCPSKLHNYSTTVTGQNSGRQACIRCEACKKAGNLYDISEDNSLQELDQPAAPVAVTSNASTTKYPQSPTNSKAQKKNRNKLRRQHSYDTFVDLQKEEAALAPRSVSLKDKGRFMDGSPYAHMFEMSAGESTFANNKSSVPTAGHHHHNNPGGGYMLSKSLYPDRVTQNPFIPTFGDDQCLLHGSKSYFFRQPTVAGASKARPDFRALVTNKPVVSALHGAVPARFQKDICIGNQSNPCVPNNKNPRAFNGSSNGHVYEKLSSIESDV

Compared with O=C(Cn1c(=O)[nH]c2ncc(-c3cccc(C(F)(F)F)c3)cc21)c1nccs1 [Example 215, 1-(2-Oxo-2-thiazol-2-yl-ethyl)-6-[3-(trifluoromethyl)phenyl]-3H-imidazo[4,5-b]pyridin-2-one], CCC(=O)Cn1c(=O)[nH]c2ncc(-c3cccc(C(F)(F)F)c3)cc21 [Example 240, 1-(2-Oxobutyl)-6-[3-(trifluoromethyl)phenyl]-3H-imidazo[4,5-b]pyridin-2-one] is 17-fold lower in IC50: 0.365 µM for the first, 0.022 µM for the second.

Going from O=c1[nH]c2ncc(-c3cccc(C(F)(F)F)c3)cc2n1Cc1ccc(C(F)(F)F)cc1 [Example 219, 6-[3-(Trifluoromethyl)phenyl]-1-[[4-(trifluoromethyl)phenyl]methyl]-3H-imidazo[4,5-b]pyridin-2-one] to O=c1[nH]c2ncc(-c3cccc(C(F)(F)F)c3)cc2n1Cc1ccc(C(F)(F)F)nc1 [Example 257, 6-[3-(Trifluoromethyl)phenyl]-1-[[6-(trifluoromethyl)-3-pyridyl]methyl]-3H-imidazo[4,5-b]pyridin-2-one], the IC50 falls from over 10 µM to 1.46 µM.

Going from COc1ccc(Cn2c(=O)[nH]c3ncc(-c4cccc(C(F)(F)F)c4)cc32)cc1F [Example 220, 1-[(3-Fluoro-4-methoxy-phenyl)methyl]-6-[3-(trifluoromethyl)phenyl]-3H-imidazo[4,5-b]pyridin-2-one] to Cc1cc(Cn2c(=O)[nH]c3ncc(-c4cccc(C(F)(F)F)c4)cc32)ccc1F [Example 221, 1-[(4-Fluoro-3-methyl-phenyl)methyl]-6-[3-(trifluoromethyl)phenyl]-3H-imidazo[4,5-b]pyridin-2-one], the IC50 rises from 1.65 µM to 8.71 µM (5.3-fold). The first is the more potent here.

First: O=c1[nH]c2ncc(-c3cccc(C(F)(F)F)c3)cc2n1Cc1cccc(F)c1 [Example 222, 1-[(3-Fluorophenyl)methyl]-6-[3-(trifluoromethyl)phenyl]-3H-imidazo[4,5-b]pyridin-2-one]
Second: O=c1[nH]c2ncc(-c3cccc(C(F)(F)F)c3)cc2n1Cc1cncc(F)c1 [Example 258, 1-[(5-Fluoro-3-pyridyl)methyl]-6-[3-(trifluoromethyl)phenyl]-3H-imidazo[4,5-b]pyridin-2-one]
The IC50 of the first is 6.2-fold higher: 0.479 µM for the first, 0.077 µM for the second. The second is the more potent here.

First: O=c1[nH]c2ncc(-c3cccc(C(F)(F)F)c3)cc2n1CC1(F)COC1 [Example 226, 1-[(3-Fluorooxetan-3-yl)methyl]-6-[3-(trifluoromethyl)phenyl]-3H-imidazo[4,5-b]pyridin-2-one]
Second: O=C(Cn1c(=O)[nH]c2ncc(-c3cccc(C(F)(F)F)c3)cc21)C1CC1 [Example 239, 1-(2-Cyclopropyl-2-oxo-ethyl)-6-[3-(trifluoromethyl)phenyl]-3H-imidazo[4,5-b]pyridin-2-one]
The IC50 of the first is 24-fold higher: 0.8 µM for the first, 0.034 µM for the second. The second is the more potent here.

O=c1[nH]c2ncc(-c3cccc(C(F)(F)F)c3)cc2n1Cc1ncccn1 [Example 227, 1-(Pyrimidin-2-ylmethyl)-6-[3-(trifluoromethyl)phenyl]-3H-imidazo[4,5-b]pyridin-2-one] and O=c1[nH]c2ncc(-c3cccc(C(F)(F)F)c3)cc2n1Cc1ncc(F)cn1 [Example 256, 1-[(5-Fluoropyrimidin-2-yl)methyl]-6-[3-(trifluoromethyl)phenyl]-3H-imidazo[4,5-b]pyridin-2-one] are within 1.5-fold of each other in IC50: 0.096 µM for the first, 0.134 µM for the second.

First: O=c1[nH]c2ncc(-c3cccc(C(F)(F)F)c3)cc2n1Cc1ccccn1 [Example 228, 1-(2-Pyridylmethyl)-6-[3-(trifluoromethyl)phenyl]-3H-imidazo[4,5-b]pyridin-2-one]
Second: O=c1[nH]c2ncc(-c3cccc(C(F)(F)F)c3)cc2n1Cc1cccnn1 [Example 232, 1-(Pyridazin-3-ylmethyl)-6-[3-(trifluoromethyl)phenyl]-3H-imidazo[4,5-b]pyridin-2-one]
The IC50 of the first is 4.9-fold higher: 0.083 µM for the first, 0.017 µM for the second. The second is the more potent here.

Going from O=c1[nH]c2ncc(-c3cccc(C(F)(F)F)c3)cc2n1Cc1ccncc1 [Example 229, 1-(4-Pyridylmethyl)-6-[3-(trifluoromethyl)phenyl]-3H-imidazo[4,5-b]pyridin-2-one] to O=c1[nH]c2ncc(-c3cccc(C(F)(F)F)c3)cc2n1Cc1cccnc1 [Example 230, 1-(3-Pyridylmethyl)-6-[3-(trifluoromethyl)phenyl]-3H-imidazo[4,5-b]pyridin-2-one], the IC50 falls from 0.194 µM to 0.017 µM (11-fold).

First: Cc1ncc(Cn2c(=O)[nH]c3ncc(-c4cccc(C(F)(F)F)c4)cc32)cn1 [Example 231, 1-[(2-Methylpyrimidin-5-yl)methyl]-6-[3-(trifluoromethyl)phenyl]-3H-imidazo[4,5-b]pyridin-2-one]
Second: Cc1ccc(Cn2c(=O)[nH]c3ncc(-c4cccc(C(F)(F)F)c4)cc32)cn1 [Example 235, 1-[(6-Methyl-3-pyridyl)methyl]-6-[3-(trifluoromethyl)phenyl]-3H-imidazo[4,5-b]pyridin-2-one]
The IC50 of the first is 2.7-fold lower: 0.094 µM for the first, 0.256 µM for the second. The first is the more potent here.

First: COc1cccnc1Cn1c(=O)[nH]c2ncc(-c3cccc(C(F)(F)F)c3)cc21 [Example 233, 1-[(3-Methoxy-2-pyridyl)methyl]-6-[3-(trifluoromethyl)phenyl]-3H-imidazo[4,5-b]pyridin-2-one]
Second: Cc1nccc(Cn2c(=O)[nH]c3ncc(-c4cccc(C(F)(F)F)c4)cc32)n1 [Example 254, 1-[(2-Methylpyrimidin-4-yl)methyl]-6-[3-(trifluoromethyl)phenyl]-3H-imidazo[4,5-b]pyridin-2-one]
The IC50 of the first is 3.4-fold higher: 2.83 µM for the first, 0.824 µM for the second. The second is the more potent here.

Compared with Cc1cnc(Cn2c(=O)[nH]c3ncc(-c4cccc(C(F)(F)F)c4)cc32)c(F)c1 [Example 234, 1-[(3-Fluoro-5-methyl-2-pyridyl)methyl]-6-[3-(trifluoromethyl)phenyl]-3H-imidazo[4,5-b]pyridin-2-one], Cc1cncc(Cn2c(=O)[nH]c3ncc(-c4cccc(C(F)(F)F)c4)cc32)c1 [Example 242, 1-[(5-Methyl-3-pyridyl)methyl]-6-[3-(trifluoromethyl)phenyl]-3H-imidazo[4,5-b]pyridin-2-one] is 13-fold lower in IC50: 1.98 µM for the first, 0.15 µM for the second.

Going from O=c1[nH]c2ncc(-c3cccc(C(F)(F)F)c3)cc2n1Cc1nn[nH]n1 [Example 236, 1-(2H-Tetrazol-5-ylmethyl)-6-[3-(trifluoromethyl)phenyl]-3H-imidazo[4,5-b]pyridin-2-one] to O=c1[nH]c2ncc(-c3cccc(C(F)(F)F)c3)cc2n1Cc1csnn1 [Example 243, 1-(Thiadiazol-4-ylmethyl)-6-[3-(trifluoromethyl)phenyl]-3H-imidazo[4,5-b]pyridin-2-one], the IC50 falls from over 5 µM to 0.065 µM. The second is the more potent here.

First: O=c1[nH]c2ncc(-c3cccc(C(F)(F)F)c3)cc2n1C(F)(F)c1cccnc1 [Example 237, 1-[Difluoro(3-pyridyl)methyl]-6-[3-(trifluoromethyl)phenyl]-3H-imidazo[4,5-b]pyridin-2-one]
Second: O=c1[nH]c2ncc(-c3cccc(C(F)(F)F)c3)cc2n1Cc1cncc(C(F)(F)F)c1 [Example 259, 6-[3-(Trifluoromethyl)phenyl]-1-[[5-(trifluoromethyl)-3-pyridyl]methyl]-3H-imidazo[4,5-b]pyridin-2-one]
The IC50 of the first is higher: over 10 µM for the first, 1.03 µM for the second. The second is the more potent here.

Compared with O=c1[nH]c2ncc(-c3cccc(C(F)(F)F)c3)cc2n1Cc1ccc(F)nc1 [Example 238, 1-[(6-Fluoro-3-pyridyl)methyl]-6-[3-(trifluoromethyl)phenyl]-3H-imidazo[4,5-1D]pyridin-2-one], O=c1ccc(Cn2c(=O)[nH]c3ncc(-c4cccc(C(F)(F)F)c4)cc32)c[nH]1 [Example 244, 1-[(6-Oxo-1H-pyridin-3-yl)methyl]-6-[3-(trifluoromethyl)phenyl]-3H-imidazo[4,5-b]pyridin-2-one] is 21-fold higher in IC50: 0.088 µM for the first, 1.89 µM for the second. The first is the more potent here.

Going from CC(C)C(=O)Cn1c(=O)[nH]c2ncc(-c3cccc(C(F)(F)F)c3)cc21 [Example 241, 1-(3-Methyl-2-oxo-butyl)-6-[3-(trifluoromethyl)phenyl]-3H-imidazo[4,5-b]pyridin-2-one] to COc1ccc(Cn2c(=O)[nH]c3ncc(-c4cccc(C(F)(F)F)c4)cc32)nn1 [Example 252, 1-[(6-Methoxypyridazin-3-yl)methyl]-6-[3-(trifluoromethyl)phenyl]-3H-imidazo[4,5-b]pyridin-2-one], the IC50 rises from 0.093 µM to over 10 µM. The first is the more potent here.

Cn1c(=O)n(Cc2ccncn2)c2cc(-c3cccc(C(F)(F)F)c3)cnc21 [Example 246, 3-Methyl-1-(pyrimidin-4-ylmethyl)-6-[3-(trifluoromethyl)phenyl]imidazo[4,5-b]pyridin-2-one] and Cn1c(=O)n(Cc2cnccn2)c2cc(-c3cccc(C(F)(F)F)c3)cnc21 [Example 249, 3-Methyl-1-(pyrazin-2-ylmethyl)-6-[3-(trifluoromethyl)phenyl]imidazo[4,5-b]pyridin-2-one] are within 1.5-fold of each other in IC50: 0.349 µM for the first, 0.253 µM for the second.

Compared with Cn1c(=O)n(Cc2cncnc2)c2cc(-c3cccc(C(F)(F)F)c3)cnc21 [Example 247, 3-Methyl-1-(pyrimidin-5-ylmethyl)-6-[3-(trifluoromethyl)phenyl]imidazo[4,5-b]pyridin-2-one], Cn1c(=O)n(Cc2ccncc2)c2cc(-c3cccc(C(F)(F)F)c3)cnc21 [Example 250, 3-Methyl-1-(4-pyridylmethyl)-6-[3-(trifluoromethyl)phenyl]imidazo[4,5-b]pyridin-2-one] is 15-fold higher in IC50: 0.133 µM for the first, 2 µM for the second.

First: Cc1nccc(Cn2c(=O)n(C)c3ncc(-c4cccc(C(F)(F)F)c4)cc32)n1 [Example 248, 3-Methyl-1-[(2-methylpyrimidin-4-yl)methyl]-6-[3-(trifluoromethyl)phenyl]imidazo[4,5-b]pyridin-2-one]
Second: Cn1c(=O)n(Cc2ccccn2)c2cc(-c3cccc(C(F)(F)F)c3)cnc21 [Example 251, 3-Methyl-1-(2-pyridylmethyl)-6-[3-(trifluoromethyl)phenyl]imidazo[4,5-b]pyridin-2-one]
The IC50 of the first is 2.6-fold higher: 2.05 µM for the first, 0.8 µM for the second. The second is the more potent here.

Going from O=c1[nH]c2ncc(-c3cccc(C(F)(F)F)c3)cc2n1Cc1cnccn1 [Example 253, 1-(Pyrazin-2-ylmethyl)-6-[3-(trifluoromethyl)phenyl]-3H-imidazo[4,5-b]pyridin-2-one] to O=c1[nH]c2ncc(-c3cccc(C(F)(F)F)c3)cc2n1Cc1cncnc1 [Example 255, 1-(Pyrimidin-5-ylmethyl)-6-[3-(trifluoromethyl)phenyl]-3H-imidazo[4,5-b]pyridin-2-one], the IC50 falls from 0.066 µM to 0.043 µM (1.5-fold). The second is the more potent here.

Source: patent US11759455B2, “Substituted 1H-imidazo[4,5-b]pyridin-2(3H)-ones and their use as GLUN2B receptor modulators” (JANSSEN PHARMACEUTICA NV, priority 2016, dated 2023)
